Experimental data: ChEMBL document CHEMBL4390708, “Design, synthesis, in-silico studies and biological screening of quinazolinone analogues as potential antibacterial agents against MRSA” (2019)
Values after ≈ are worked out from the molar mass of the structure shown.

What was measured:
Assay type in all cases: functional
[1] = system: Escherichia coli; assay: Antibacterial activity against Escherichia coli assessed as reduction in bacterial cell viability incubated for 20 to 24 hrs by REMA method
[2] = system: Staphylococcus aureus; assay: Antibacterial activity against Staphylococcus aureus assessed as reduction in bacterial cell viability incubated for 20 to 24 hrs by REMA method
[3] = system: Staphylococcus aureus; assay: Antibacterial activity against methicillin-resistant Staphylococcus aureus assessed as reduction in bacterial cell viability incubated for 20 to 24 hrs by REMA method

| Compound | MIC [1] | MIC [2] | MIC [3] |
| --- | --- | --- | --- |
| O=C(Nc1cccc(-n2c(/C=C/c3ccc(F)cc3)nc3ccccc3c2=O)c1)c1cccs1 | 62.5 µg/mL (≈ 134 µM) | 31.2 µg/mL (≈ 66.8 µM) | 31.2 µg/mL (≈ 66.8 µM) |
| Cc1ccccc1C(=O)Nc1cccc(-n2c(/C=C/c3ccc(C#N)cc3)nc3ccccc3c2=O)c1 | 62.5 µg/mL (≈ 130 µM) | 62.5 µg/mL (≈ 130 µM) | 62.5 µg/mL (≈ 130 µM) |
| COc1ccc(C(=O)Nc2cccc(-n3c(/C=C/c4ccc(F)cc4)nc4ccccc4c3=O)c2)cc1OC | 62.5 µg/mL (≈ 120 µM) | 62.5 µg/mL (≈ 120 µM) | 62.5 µg/mL (≈ 120 µM) |
| O=C(Nc1cccc(-n2c(/C=C/c3ccc(F)cc3)nc3ccccc3c2=O)c1)c1ccccc1 | 62.5 µg/mL (≈ 135 µM) | 125 µg/mL (≈ 271 µM) | 62.5 µg/mL (≈ 135 µM) |
| COc1ccc(CC(=O)Nc2cccc(-n3c(/C=C/c4ccc(Cl)cc4)nc4ccccc4c3=O)c2)cc1 | 62.5 µg/mL (≈ 120 µM) | 15.6 µg/mL (≈ 29.9 µM) | 31.2 µg/mL (≈ 59.9 µM) |
| N#Cc1ccc(/C=C/c2nc3ccccc3c(=O)n2-c2cccc(NC(=O)c3ccccc3)c2)cc1 | 62.5 µg/mL (≈ 133 µM) | 62.5 µg/mL (≈ 133 µM) | 62.5 µg/mL (≈ 133 µM) |
| Cc1ccccc1C(=O)Nc1cccc(-n2c(/C=C/c3ccc(F)cc3)nc3ccccc3c2=O)c1 | 62.5 µg/mL (≈ 131 µM) | 125 µg/mL (≈ 263 µM) | 62.5 µg/mL (≈ 131 µM) |
| COc1ccc(CC(=O)Nc2cccc(-n3c(/C=C/c4ccc(F)cc4)nc4ccccc4c3=O)c2)cc1 | 62.5 µg/mL (≈ 124 µM) | 62.5 µg/mL (≈ 124 µM) | 62.5 µg/mL (≈ 124 µM) |
| N#Cc1ccc(/C=C/c2nc3ccccc3c(=O)n2-c2cccc(NC(=O)c3cccs3)c2)cc1 | 62.5 µg/mL (≈ 132 µM) | 62.5 µg/mL (≈ 132 µM) | 62.5 µg/mL (≈ 132 µM) |
| COc1ccc(C(=O)Nc2cccc(-n3c(/C=C/c4ccc(Cl)cc4)nc4ccccc4c3=O)c2)cc1OC | 62.5 µg/mL (≈ 116 µM) | 62.5 µg/mL (≈ 116 µM) | 62.5 µg/mL (≈ 116 µM) |
| NC[C@H]1O[C@H](O[C@H]2[C@H](O)[C@@H](O[C@H]3O[C@H](CO)[C@@H](O)[C@H](N)[C@H]3O)[C@H](N)C[C@@H]2N)[C@H](O)[C@@H](O)[C@@H]1O [KANAMYCIN] | 7.8 µg/mL (≈ 16.1 µM) | 7.8 µg/mL (≈ 16.1 µM) | – |
| CC(=O)NC[C@H]1CN(c2ccc(N3CCOCC3)c(F)c2)C(=O)O1 [LINEZOLID] | – | – | 7.8 µg/mL (≈ 23.1 µM) |
| CN[C@@H]1[C@H](O[C@H]2[C@H](O[C@H]3[C@H](O)[C@@H](O)[C@H](N=C(N)N)[C@@H](O)[C@@H]3N=C(N)N)O[C@@H](C)[C@]2(O)C=O)O[C@@H](CO)[C@H](O)[C@H]1O [STREPTOMYCIN] | 7.8 µg/mL (≈ 13.4 µM) | 7.8 µg/mL (≈ 13.4 µM) | – |
